Results as given in patent US7553966B2, “Glucocorticoid mimetics, methods of making them, pharmaceutical compositions, and uses thereof” (Boehringer Ingelheim Pharmaceuticals, Inc., priority 2002, dated 2009).

How the values were obtained:
[1] = target: T1, human glucocorticoid receptor (GR) complex (Homo sapiens, UniProt P04150); assay: Glucocorticoid Receptor Competitive Binding Assay (fluorescence polarization, TAMRA-labeled dexamethasone probe); conditions: qualitative statement; competition with TAMRA-labeled dexamethasone
T1 construct: made in house; host or cells: insect expression system (baculovirus lysate)
T1 sequence (P04150 1-777): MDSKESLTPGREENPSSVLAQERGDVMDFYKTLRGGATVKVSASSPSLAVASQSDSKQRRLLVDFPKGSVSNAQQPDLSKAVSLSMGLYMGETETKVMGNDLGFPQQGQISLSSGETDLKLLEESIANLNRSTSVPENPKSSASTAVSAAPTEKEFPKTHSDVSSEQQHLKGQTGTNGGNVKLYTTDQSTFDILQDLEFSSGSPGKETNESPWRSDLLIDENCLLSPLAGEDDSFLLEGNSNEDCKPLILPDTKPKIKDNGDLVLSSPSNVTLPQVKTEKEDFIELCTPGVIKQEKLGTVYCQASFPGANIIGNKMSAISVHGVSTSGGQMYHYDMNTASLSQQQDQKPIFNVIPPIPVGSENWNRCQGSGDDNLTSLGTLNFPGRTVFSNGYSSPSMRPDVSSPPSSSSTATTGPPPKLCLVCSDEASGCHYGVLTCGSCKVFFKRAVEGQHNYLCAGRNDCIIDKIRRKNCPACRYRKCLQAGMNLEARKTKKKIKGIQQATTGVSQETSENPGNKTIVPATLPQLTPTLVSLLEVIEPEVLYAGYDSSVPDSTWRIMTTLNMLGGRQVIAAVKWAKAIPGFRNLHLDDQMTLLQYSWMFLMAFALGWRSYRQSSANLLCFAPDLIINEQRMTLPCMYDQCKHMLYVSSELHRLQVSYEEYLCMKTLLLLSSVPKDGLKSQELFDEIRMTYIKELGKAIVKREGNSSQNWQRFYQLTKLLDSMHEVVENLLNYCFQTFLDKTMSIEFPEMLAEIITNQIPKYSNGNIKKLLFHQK
Method in brief: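 Competition with TAMRA-dexamethasone for a human GR complex expressed in insect cells, read by fluorescence polarization. Buffer was 10 mM TES, 50 mM KCl, 20 mM Na2MoO4, 1.5 mM EDTA, 0.04% CHAPS, 10% glycerol, 1 mM DTT, pH 7.4.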

[2] = system: glucocorticoid receptor; assay: Glucocorticoid Receptor Cell Assays (agonist activity in one or more of the above assays); format: cell-based; conditions: qualitative statement; assay not specified

Row | SMILES | activity in the GR binding assay [1] | activity as agonists of the glucocorticoid receptor function in one or more of the above assays [2]
1 | COc1ccc(F)cc1C(C)(C)CC(O)(Cc1[nH]c2cnccc2c1C)C(F)(F)F (centres unmarked) [1,1,1-Trifluoro-4-(5-fluoro-2-methoxyphenyl)-4-methyl-2-(3-methyl-1H-pyrrolo[2,3-c]pyridin-2-ylmethyl)pentan-2-ol] | potent activity | potent agonists
2 | Cc1cccc2[nH]c(CC(O)(CC(C)(C)c3cccc(F)c3)C(F)(F)F)cc12 (centres unmarked) [1,1,1-Trifluoro-4-(3-fluorophenyl)-4-methyl-2-(4-methyl-1H-indol-2-ylmethyl)pentan-2-ol] | potent activity | potent agonists
3 | CC(C)(CC(O)(Cc1ccnc2ccccc12)C(F)(F)F)c1cccc(C(F)(F)F)c1 (centres unmarked) [1,1,1-Trifluoro-4-methyl-2-quinolin-4-ylmethyl-4-(3-trifluoromethylphenyl)pentan-2-ol] | potent activity | potent agonists
4 | COc1cc(F)ccc1C(C)(C)CC(O)(Cc1ccnc2ccccc12)C(F)(F)F (centres unmarked) [1,1,1-Trifluoro-4-(4-fluoro-2-methoxyphenyl)-4-methyl-2-quinolin-4-ylmethylpentan-2-ol] | potent activity | potent agonists
5 | COc1ccc(F)cc1C(C)(C)CC(O)(Cc1cc2cccc(F)c2[nH]1)C(F)(F)F (centres unmarked) [1,1,1-Trifluoro-2-(7-fluoro-1H-indol-2-ylmethyl)-4-(5-fluoro-2-methoxyphenyl)-4-methylpentan-2-ol] | potent activity | potent agonists
6 | CC(C)(CC(O)(Cc1cc2ccncc2[nH]1)C(F)(F)F)c1cc(F)ccc1O (centres unmarked) [4-Fluoro-2-[4,4,4-trifluoro-3-hydroxy-1,1-dimethyl-3-(1H-pyrrolo[2,3-c]pyridin-2-ylmethyl)butyl]phenol] | potent activity | potent agonists
7 | CC(C)(CC(O)(Cc1ccnc2cccc(F)c12)C(F)(F)F)c1ccc(F)cc1 (centres unmarked) [1,1,1-Trifluoro-4-(4-fluorophenyl)-2-(5-fluoroquinolin-4-ylmethyl)-4-methylpentan-2-ol] | potent activity | potent agonists
8 | CC(C)(CC(O)(Cc1ccnc2ccccc12)C(F)(F)F)c1cccc2c1OCC2 (centres unmarked) [4-(2,3-Dihydrobenzofuran-7-yl)-1,1,1-trifluoro-4-methyl-2-quinolin-4-ylmethylpentan-2-ol] | potent activity | potent agonists
9 | COc1ccc(F)cc1C(C)(C)CC(O)(Cc1[nH]c2ccccc2c1C#N)C(F)(F)F (centres unmarked) [2-[4-(5-Fluoro-2-methoxyphenyl)-2-hydroxy-4-methyl-2-trifluoromethylpentyl]-1H-indole-3-carbonitrile] | potent activity | potent agonists
10 | CC(C)(CC(O)(Cc1[nH]c2ccccc2c1C#N)C(F)(F)F)c1cc(F)cc2c1OCC2 (centres unmarked) [2-[4-(5-Fluoro-2,3-dihydrobenzofuran-7-yl)-2-hydroxy-4-methyl-2-trifluoromethylpentyl]-1H-indole-3-carbonitrile] | potent activity | potent agonists
